Values of other authors as cited in patent US9597409B2, “Methods of treating cancer” (Abraxis BioScience, LLC, priority 2010, dated 2017).

Test system: patients with locally advanced or metastatic NSCLC
Settings: single agents commonly used to treat NSCLC

Q: For CCC1=C[C@@H]2CN(C1)Cc1c([nH]c3ccccc13)[C@@](C(=O)OC)(c1cc3c(cc1OC)N(C)[C@H]1[C@@](O)(C(=O)OC)[C@H](OC(C)=O)[C@]4(CC)C=CCN5CC[C@]31[C@@H]54)C2 [vinorelbine], which “response rate (RR)” value is on record?
A: 29.4%
